Drawing on US9346799B2, “Useful combinations of monobactam antibiotics with beta-lactamase inhibitors” (Basilea Pharmaceutica AG, priority 2005, dated 2016), this text covers MIC of antibiotic for seven compounds.

Molecules are shown by their SMILES.

What all share (assay): MIC by broth microdilution (NCCLS M7-A5)
One assay relates to Acinetobacter sp. J2. Particulars: Acinetobacter baumannii J2.
In assay [1] the test system is Stenotrophomonas malthophilia 1AC736. Particulars: Stenotrophomonas maltophilia 1AC736.
Another assay deals with Serratia marcescens S6.
The test system of assay [2] is Pseudomonas aeruginosa MK1184.
Assay [3] concerns Klebsiella pneumoniae CF104.
In assay [4] the test system is Pseudomonas aeruginosa 1973E.
The test system of the next assay is Enterobacter cloacae P99.
Setting [5] is: + 102 + clavulanate, 4 mg/L each.
Where [6] appears, read: + 324 + clavulanate, 4 mg/L each.

Regarding `C[C@H](ON1C(=O)[C@@H](NC(=O)/C(=N\OCc2cc(=O)c(O)cn2O)c2csc(N)n2)[C@@H]1C)C(=O)O` [Compound 23, (2S)-2-((3S,4S)-3-{(2Z)-2-(2-amino(1,3-thiazol-4-yl))-3-[(1,5-dihydroxy-4-oxo(2-hydropyridyl))methoxy]-3-azaprop-2-enoylamino}-4-methyl-2-oxoazetidinyloxy)propanoic acid], the MIC of antibiotic was 8 µg/mL with Acinetobacter sp. J2 (setting [5]); 8 µg/mL with Acinetobacter sp. J2 (setting [6]); 2 µg/mL with Acinetobacter sp. J2 (+ 324 + sulbactam, 4 mg/L each); 16 µg/mL in the assay on Acinetobacter sp. J2 (antibiotic alone); 1 µg/mL in assay [1] (antibiotic alone); 0.25 µg/mL in the assay on Serratia marcescens S6 (setting [5]). Also, the MIC of antibiotic in the assay on Serratia marcescens S6 (setting [6]) worked out at 0.25 µg/mL; in the assay on Serratia marcescens S6 (+ 324 + sulbactam, 4 mg/L each) it was 0.5 µg/mL; in the assay with Serratia marcescens S6 (antibiotic alone), 0.25 µg/mL; in assay [2] (setting [5]) it was 8 µg/mL; in assay [2] (setting [6]), 8 µg/mL; in assay [2] (+ 324 + sulbactam, 4 mg/L each), 8 µg/mL. The MIC of antibiotic is 8 µg/mL in assay [2] (antibiotic alone); 1 µg/mL in assay [3] (setting [5]); 1 µg/mL in assay [3] (setting [6]); 2 µg/mL in assay [3] (+ 324 + sulbactam, 4 mg/L each); >32 µg/mL in assay [3] (antibiotic alone); 8 µg/mL in assay [4] (setting [5]). The MIC of antibiotic stood at 16 µg/mL in assay [4] (setting [6]); 16 µg/mL in assay [4] (+ 324 + sulbactam, 4 mg/L each); 8 µg/mL in assay [4] (antibiotic alone); 8 µg/mL in the assay on Enterobacter cloacae P99 (setting [5]); 4 µg/mL in the assay with Enterobacter cloacae P99 (setting [6]); 8 µg/mL in the assay with Enterobacter cloacae P99 (+ 324 + sulbactam, 4 mg/L each). In the assay on Enterobacter cloacae P99 (antibiotic alone), the MIC of antibiotic was >32 µg/mL.

On to `NC(=O)OCC1C(NC(=O)C(=NOCc2cc(=O)c(O)cn2O)c2csc(N)n2)C(=O)N1OS(=O)(=O)O` (stereo not drawn) [Compound 25], for which the MIC of antibiotic was 16 µg/mL with Acinetobacter sp. J2 (setting [5]); >32 µg/mL in the assay with Acinetobacter sp. J2 (setting [6]); >32 µg/mL in the assay on Acinetobacter sp. J2 (antibiotic alone); 1 µg/mL in assay [1] (setting [5]); 1 µg/mL in assay [1] (setting [6]); 4 µg/mL in assay [1] (antibiotic alone). In addition, the MIC of antibiotic with Serratia marcescens S6 (setting [5]) is 1 µg/mL; with Serratia marcescens S6 (setting [6]), 1 µg/mL; in the assay with Serratia marcescens S6 (antibiotic alone) it was 1 µg/mL; in assay [2] (setting [5]), 4 µg/mL; in assay [2] (setting [6]), 8 µg/mL; in assay [2] (antibiotic alone), >32 µg/mL. Besides, the MIC of antibiotic in assay [3] (setting [5]) is 0.5 µg/mL; in assay [3] (setting [6]), 0.5 µg/mL; in assay [3] (antibiotic alone), >32 µg/mL; in assay [4] (setting [5]) it was 4 µg/mL; in assay [4] (setting [6]), 8 µg/mL; in assay [4] (antibiotic alone), 16 µg/mL. Moreover, the results for the MIC of antibiotic with Enterobacter cloacae P99 (setting [5]), in the assay with Enterobacter cloacae P99 (setting [6]) and with Enterobacter cloacae P99 (antibiotic alone) were 8 µg/mL, 4 µg/mL and >32 µg/mL, respectively.

As to `CC1C(NC(=O)C(=NOCc2cc(=O)c(O)cn2O)c2csc(NC=O)n2)C(=O)N1S(=O)(=O)O` (stereo not drawn) [Compound 28], the MIC of antibiotic in the assay on Acinetobacter sp. J2 (setting [5]) is >32 µg/mL; in the assay with Acinetobacter sp. J2 (antibiotic alone), >32 µg/mL; in assay [1] (setting [5]), 8 µg/mL; in assay [1] (antibiotic alone) it was 8 µg/mL; in the assay with Serratia marcescens S6 (setting [5]), 16 µg/mL; with Serratia marcescens S6 (antibiotic alone), 8 µg/mL. The MIC of antibiotic in assay [2] (setting [5]) was 32 µg/mL; in assay [2] (antibiotic alone), >32 µg/mL; in assay [3] (setting [5]), 2 µg/mL; in assay [3] (antibiotic alone) it was >32 µg/mL; in assay [4] (setting [5]), 16 µg/mL; in assay [4] (antibiotic alone) it was >32 µg/mL. Also, the MIC of antibiotic in the assay on Enterobacter cloacae P99 (setting [5]) was 32 µg/mL; with Enterobacter cloacae P99 (antibiotic alone) it was >32 µg/mL.

Take `C[C@H]1[C@H](NC(=O)/C(=N\OCc2cc(=O)c(O)cn2O)c2nc(N)sc2Cl)C(=O)N1OS(=O)(=O)O` [Compound 29, (3S,4S)-3-{(2Z)-2-(2-amino-5-chloro(1,3-thiazol-4-yl))-3-[(1,5-dihydroxy-4-oxo(2-hydropyridyl))methoxy]-3-azaprop-2-enoylamino}-4-methyl-2-oxoazetidinyl hydroxysulfonate]: the MIC of antibiotic was >32 µg/mL with Acinetobacter sp. J2 (setting [5]); 2 µg/mL with Acinetobacter sp. J2 (+ 102 + sulbactam, 4 mg/L each); 2 µg/mL in the assay with Acinetobacter sp. J2 (+ 323 + sulbactam, 4 mg/L each); >32 µg/mL in the assay with Acinetobacter sp. J2 (antibiotic alone); 0.5 µg/mL in assay [1] (setting [5]); 1 µg/mL in assay [1] (+ 102 + sulbactam, 4 mg/L each). Further, the MIC of antibiotic came to 1 µg/mL in assay [1] (+ 323 + sulbactam, 4 mg/L each); 1 µg/mL in assay [1] (antibiotic alone); 1 µg/mL in the assay on Serratia marcescens S6 (setting [5]); 8 µg/mL in the assay on Serratia marcescens S6 (+ 102 + sulbactam, 4 mg/L each); 8 µg/mL in the assay with Serratia marcescens S6 (+ 323 + sulbactam, 4 mg/L each); 32 µg/mL in the assay with Serratia marcescens S6 (antibiotic alone). Besides, the MIC of antibiotic in assay [2] (setting [5]) is 8 µg/mL; in assay [2] (+ 102 + sulbactam, 4 mg/L each), 4 µg/mL; in assay [2] (+ 323 + sulbactam, 4 mg/L each), 8 µg/mL; in assay [2] (antibiotic alone) it was >32 µg/mL; in assay [3] (setting [5]), 0.5 µg/mL; in assay [3] (+ 102 + sulbactam, 4 mg/L each) it was 2 µg/mL. Further, the MIC of antibiotic in assay [3] (+ 323 + sulbactam, 4 mg/L each) is 2 µg/mL; in assay [3] (antibiotic alone), >32 µg/mL; in assay [4] (setting [5]), 8 µg/mL; in assay [4] (+ 102 + sulbactam, 4 mg/L each), 8 µg/mL; in assay [4] (+ 323 + sulbactam, 4 mg/L each), 8 µg/mL; in assay [4] (antibiotic alone), 4 µg/mL. Moreover, the MIC of antibiotic was 0.25 µg/mL with Enterobacter cloacae P99 (setting [5]); 8 µg/mL in the assay with Enterobacter cloacae P99 (+ 102 + sulbactam, 4 mg/L each); 8 µg/mL with Enterobacter cloacae P99 (+ 323 + sulbactam, 4 mg/L each); >32 µg/mL in the assay with Enterobacter cloacae P99 (antibiotic alone).

As to `CC1(C)C(NC(=O)C(=NOCc2cc(=O)c(O)cn2O)c2nsc(N)n2)C(=O)N1OS(=O)(=O)O` (stereo not drawn) [Compound 32], the MIC of antibiotic in the assay on Acinetobacter sp. J2 (setting [5]) is >32 µg/mL; in the assay on Acinetobacter sp. J2 (setting [6]), 4 µg/mL; in assay [1] (setting [5]), 0.5 µg/mL; in assay [1] (setting [6]) it was 0.5 µg/mL; in the assay on Serratia marcescens S6 (setting [5]), 0.5 µg/mL; in the assay with Serratia marcescens S6 (setting [6]), 0.25 µg/mL. The MIC of antibiotic was 4 µg/mL in assay [2] (setting [5]); 4 µg/mL in assay [2] (setting [6]); >32 µg/mL in assay [3] (setting [5]); 1 µg/mL in assay [3] (setting [6]); 2 µg/mL in assay [3] (antibiotic alone); 16 µg/mL in assay [4] (setting [5]). The MIC of antibiotic in assay [4] (setting [6]) came to 8 µg/mL; with Enterobacter cloacae P99 (setting [5]), 32 µg/mL; with Enterobacter cloacae P99 (setting [6]) it was 8 µg/mL.

On to `CC1(C)C(NC(=O)C(=NOCc2cc(=O)c(O)cn2O)c2csc(N)n2)C(=O)N1OCC(=O)O` (stereo not drawn) [Compound 33], for which the MIC of antibiotic in the assay with Acinetobacter sp. J2 (setting [5]) is >32 µg/mL; in the assay with Acinetobacter sp. J2 (setting [6]), 16 µg/mL; in the assay on Acinetobacter sp. J2 (antibiotic alone), 8 µg/mL; in assay [1] (setting [5]), 2 µg/mL; in assay [1] (setting [6]), 2 µg/mL; in assay [1] (antibiotic alone), 2 µg/mL. The MIC of antibiotic in the assay on Serratia marcescens S6 (setting [5]) was found to be 0.5 µg/mL; in the assay on Serratia marcescens S6 (setting [6]), 0.25 µg/mL; with Serratia marcescens S6 (antibiotic alone), 0.25 µg/mL; in assay [2] (setting [5]), 32 µg/mL; in assay [2] (setting [6]) it was 16 µg/mL; in assay [2] (antibiotic alone), 32 µg/mL. For the same compound, the MIC of antibiotic in assay [3] (setting [5]) was found to be 2 µg/mL; in assay [3] (setting [6]), 0.5 µg/mL; in assay [3] (antibiotic alone), 0.5 µg/mL; in assay [4] (setting [5]), 32 µg/mL; in assay [4] (setting [6]), 16 µg/mL; in assay [4] (antibiotic alone), 16 µg/mL. Further, the MIC of antibiotic with Enterobacter cloacae P99 (setting [5]) came to 32 µg/mL; in the assay on Enterobacter cloacae P99 (setting [6]), 4 µg/mL; in the assay on Enterobacter cloacae P99 (antibiotic alone), 16 µg/mL.

As for `NC(=O)OCC1C(NC(=O)C(=NOCc2cc(=O)c(O)cn2O)c2csc(N)n2)C(=O)N1OCC(=O)O` (stereo not drawn) [Compound 41], the MIC of antibiotic with Acinetobacter sp. J2 (setting [5]) is 16 µg/mL; in the assay with Acinetobacter sp. J2 (antibiotic alone), 16 µg/mL; in assay [1] (setting [5]) it was 2 µg/mL; in assay [1] (antibiotic alone), 1 µg/mL; with Serratia marcescens S6 (setting [5]), 0.5 µg/mL; with Serratia marcescens S6 (antibiotic alone), 1 µg/mL. For the same compound, the MIC of antibiotic in assay [2] (setting [5]) is 4 µg/mL; in assay [2] (antibiotic alone), 4 µg/mL; in assay [3] (setting [5]), 0.5 µg/mL; in assay [3] (antibiotic alone), >32 µg/mL; in assay [4] (setting [5]) it was 4 µg/mL; in assay [4] (antibiotic alone), 4 µg/mL. Moreover, the results for the MIC of antibiotic with Enterobacter cloacae P99 (setting [5]) and in the assay with Enterobacter cloacae P99 (antibiotic alone) were 16 µg/mL and >32 µg/mL, respectively.
